From patent publication US7867992B2, “Substituted quinolones” (AiCuris GmbH & Co. KG, priority 2004, dated 2011)
Where a name gives a salt, the structure may show the parent alone. Read-outs that look alike come from different tables or passages of the source.

What was measured:
[1] = Cytostatic effect on NHDF cells in the anti-HCMV cytopathogenicity test; format: cell-based; details: NHDF cells (human prepuce fibroblasts), 6 days incubation, visual assessment, concentration at which no visible cytostatic effects are evident vs untreated cell control
Experimental: (§1) Anti-HCMV (Anti-human Cytomegalovirus) Cytopathogenicity Tests
(§2) The test compounds are employed as 50 millimolar (mM) solutions in dimethyl sulfoxide (DMSO). Ganciclovir®, Foscamet® and Cidofovir® are used as reference compounds. After the addition of 2 μl of the 50, 5, 0.5 and 0.05 mM DMSO stock solutions respectively to 98 μl portions of cell culture medium in row 2 A-H for duplicate determinations, 1:2 dilutions are carried out with 50 μl portions of medium up to row 11 of the 96-well plate. The wells in rows 1 and 12 each contain 50 μl of medium. 150 μl of a suspension of 1×10^4 cells (human prepuce fibroblasts [NHDF]) are then pipetted into each of the wells (row 1=cell control) and, in rows 2-12, a mixture of HCMV-infected and uninfected NHDF cells (M.O.I.=0.001-0.002), i.e. 1-2 infected cells per 1000 uninfected cells. Row 12 (without substance) serves as virus control. The final test concentrations are 250-0.0005 μM. The plates are incubated at 37° C./5% CO2 for 6 days, i.e. until all the cells in the virus controls are infected (100% cytopathogenic effect [CPE]). The wells are then fixed and stained by adding a mixture of formalin and Giemsa's dye (30 minutes), washed with double-distilled water and dried in a drying oven at 50° C. The plates are then assessed visually using an overhead microscope (plaque multiplier from Technomara).
(§3) The following data can be obtained from the test plates: • CC50 (NHDF)=substance concentration in μM at which no visible cytostatic effects on the cells are evident by comparison with the untreated cell control; • EC50 (HCMV)=substance concentration in μM which inhibits the CPE (cytopathic effect) by 50% compared with the untreated virus control; • SI (selectivity index)=CC50 (NHDF)/EC50 (HCMV).

[2] = test system: HCMV; assay: Anti-HCMV cytopathogenicity test (CPE inhibition); format: cell-based, human cytomegalovirus; details: for EC50: read-out: HCMV EC50; for SI HCMV (selectivity index): SI = CC50 (NHDF)/EC50 (HCMV)
Experimental: as §1, §2, §3

[3] = Human betaherpesvirus 5, 144 h, HCMV-infected NHDF cells, M.O.I. 0.001-0.002, 6 days, 50% inhibition of CPE vs untreated virus control

COc1c(N2C[C@@H](C)N[C@@H](C)C2)c(F)cc2c(=O)c(C(=O)NCc3ccc(Cl)cc3Cl)cn([C@@H]3C[C@@H]3F)c12 (mixture of isomers) [Example 16, N-(2,4-Dichlorobenzyl)-7-[(3RS,5SR)-3,5-dimethylpiperazin-1-yl]-6-fluoro-1-[(1R,2S)-2-fluorocyclopropyl]-8-methoxy-4-oxo-1,4-dihydroquinoline-3-carboxamide]
CC50 at 6 days [1]: 7.8 µM | EC50 [2, 3]: 0.1 µM | SI HCMV (selectivity index) [2]: 78

O=C(NCc1ccc(Cl)cc1Cl)c1cn(C2CC2)c2c(Cl)c(N3CCCN(CCO)CC3)c(F)cc2c1=O [Example 1, 8-Chloro-1-cyclopropyl-N-(2,4-dichlorobenzyl)-6-fluoro-7-[4-(2-hydroxyethyl)-1,4-diazepan-1-yl]-4-oxo-1,4-dihydroquinoline-3-carboxamide]
CC50 at 6 days [1]: 2.5 µM | EC50 [2, 3]: 0.2 µM | SI HCMV (selectivity index) [2]: 12.5

C[C@@H]1CN(c2c(F)cc3c(=O)c(C(=O)NCc4ccc(Cl)cc4Cl)cn(C4CC4)c3c2Cl)C[C@H](C)N1 [Example 5, 8-Chloro-1-cyclopropyl-N-(2,4-dichlorobenzyl)-7-[(3RS,5SR)-3,5-dimethylpipierazin-1-yl]-6-fluoro-4-oxo-1,4-dihydroquinoline-3-carboxamide]
CC50 at 6 days [1]: 6 µM | EC50 [2, 3]: 0.23 µM | SI HCMV (selectivity index) [2]: 26

Cc1cc(Cl)ccc1CNC(=O)c1cn(C2CC2)c2c(Cl)c(N3CCN(CCOCCO)CC3)c(F)cc2c1=O [Example 8, 8-Chloro-N-(4-chloro-2-methylbenzyl)-1-cyclopropyl-6-fluoro-7-{4-[2-(2-hydroxyethoxy)ethyl]piperazin-1-yl}-4-oxo-1,4-dihydroquinoline-3-carboxamide]
CC50 at 6 days [1]: 7.7 µM | EC50 [2, 3]: 0.19 µM | SI HCMV (selectivity index) [2]: 41

COc1ccc(CNC(=O)c2cn(C3CC3)c3c(OC)c(N4C[C@@H](C)N[C@@H](C)C4)c(F)cc3c2=O)c(Cl)c1 [Example 22]
CC50 at 6 days [1]: 8.4 µM | EC50 [2, 3]: 0.38 µM | SI HCMV (selectivity index) [2]: 22

COc1c(N2C[C@@H](C)N[C@@H](C)C2)c(F)cc2c(=O)c(C(=O)NCc3ccc(C(F)(F)F)cc3C)cn(C3CC3)c12 [Example 24]
CC50 at 6 days [1]: 4.7 µM | EC50 [2, 3]: 0.25 µM | SI HCMV (selectivity index) [2]: 19

COc1c(N2C[C@@H](C)N[C@@H](C)C2)c(F)cc2c(=O)c(C(=O)NCc3ccc(Cl)cc3Cl)cn(CCF)c12 [Example 28, N-(2,4-Dichlorobenzyl)-7-[(3RS,5RS-3,5-dimethyl)piperazin-1-yl]-6-fluoro-1-(2-fluoroethyl)-8-methoxy-4-oxo-1,4-dihydroquinoline-3-carboxamide hydroformate]
CC50 at 6 days [1]: 6.1 µM | EC50 [2, 3]: 0.1 µM | SI HCMV (selectivity index) [2]: 63

COc1c(N2C[C@@H](C)N[C@@H](C)C2)c(F)cc2c(=O)c(C(=O)NCc3ccc(Cl)cc3Cl)cn([C@H]3C[C@H]3F)c12 [Example 34]
CC50 at 6 days [1]: 8.4 µM | EC50 [2, 3]: 0.019 µM | SI HCMV (selectivity index) [2]: 442

COc1c(N2C[C@@H](C)N[C@@H](C)C2)c(F)cc2c(=O)c(C(=O)NCc3ccc(Cl)cc3Cl)cn(CC(F)F)c12 [Example 35]
CC50 at 6 days [1]: 4.8 µM | EC50 [2, 3]: 0.0365 µM | SI HCMV (selectivity index) [2]: 138

COc1c(N2C[C@@H](C)N[C@@H](C)C2)c(F)cc2c(=O)c(C(=O)NCc3ccc(Cl)cc3Cl)cn(C3CCC3)c12 [Example 40]
CC50 at 6 days [1]: 11 µM | EC50 [2, 3]: 0.11 µM | SI HCMV (selectivity index) [2]: 100

COc1c(N2C[C@@H](C)N[C@@H](C)C2)c(F)cc2c(=O)c(C(=O)NCc3ccc(Cl)cc3Cl)cn([C@@H](C)C(F)(F)F)c12 [Example 45]
CC50 at 6 days [1]: 2.4 µM | EC50 [2, 3]: 0.077 µM | SI HCMV (selectivity index) [2]: 31

COc1c(N2C[C@@H](C)N[C@@H](C)C2)c(F)cc2c(=O)c(C(=O)NCc3ccc(OC(F)(F)F)cc3Cl)cn(CC(F)(F)F)c12 [Example 51]
CC50 at 6 days [1]: 5.3 µM | EC50 [2, 3]: 0.011 µM | SI HCMV (selectivity index) [2]: 482

COc1c(N2C[C@@H](C)N[C@@H](C)C2)c(F)cc2c(=O)c(C(=O)NCc3ccc(OC(F)(F)F)cc3C)cn(CC(F)(F)F)c12 [Example 52, 7-[(3RS,5SR)-3,5-Dimethylpiperazin-1-yl]-6-fluoro-8-methoxy-N-[2-methyl-4-(trifluoromethoxy)benzyl]-4-oxo-1-(2,2,2-trifluoroethyl)-1,4-dihydroquinoline-3-carboxamide]
CC50 at 6 days [1]: 7.7 µM | EC50 [2, 3]: 0.019 µM | SI HCMV (selectivity index) [2]: 405

COc1c(N2C[C@@H](C)N(CC(N)=O)[C@@H](C)C2)c(F)cc2c(=O)c(C(=O)NCc3ccc(Cl)cc3Cl)cn(CC(F)(F)F)c12 [Example 53, {(2RS,6SR)-4-[3-{[(2,4-Dichlorobenzyl)amino]carbonyl}-6-fluoro-8-methoxy-4-oxo-1-(2,2,2-trifluoroethyl)-1,4-dihydroquinolin-7-yl]-2,6-dimethylpiperazin-1-yl}acetamide]
CC50 at 6 days [1]: 4.3 µM | EC50 [2, 3]: 0.01 µM | SI HCMV (selectivity index) [2]: 430

COc1c(N2C[C@@H](C)N(CC(=O)N(C)C)[C@@H](C)C2)c(F)cc2c(=O)c(C(=O)NCc3ccc(Cl)cc3Cl)cn(CC(F)(F)F)c12 [Example 54]
CC50 at 6 days [1]: 21 µM | EC50 [2, 3]: 0.0085 µM | SI HCMV (selectivity index) [2]: 2471

COc1c(N2C[C@@H](C)N(CC(=O)NS(C)(=O)=O)[C@@H](C)C2)c(F)cc2c(=O)c(C(=O)NCc3ccc(OC(F)(F)F)cc3C)cn(CC(F)(F)F)c12 [Example 68]
CC50 at 6 days [1]: 24 µM | EC50 [2, 3]: 0.002 µM | SI HCMV (selectivity index) [2]: 12000

COc1c(N2CCN(CCC(N)=O)C(C)C2)c(F)cc2c(=O)c(C(=O)NCc3ccc(Cl)cc3Cl)cn(C3CC3)c12 (stereo not drawn) [Example 74]
CC50 at 6 days [1]: 2.6 µM | EC50 [2, 3]: 0.092 µM | SI HCMV (selectivity index) [2]: 28

COc1c(N2C[C@@H](C)N(C(=O)CN)[C@@H](C)C2)c(F)cc2c(=O)c(C(=O)NCc3ccc(Cl)cc3Cl)cn(C3CC3)c12 [Example 79, 1-Cyclopropyl-N-(2,4-dichlorobenzyl)-6-fluoro-7-[(3RS,5SR)-4-glycyl-3,5-dimethylpiperazin-1-yl]-8-methoxy-4-oxo-1,4-dihydroquinoline-3-carboxamide hydrochloride]
CC50 at 6 days [1]: 7.7 µM | EC50 ([2]; Human betaherpesvirus 5, NHDF, 144 h): 0.053 µM | SI HCMV (selectivity index) [2]: 145

COc1c(N2C[C@@H](C)N(C[C@@H](O)CO)[C@@H](C)C2)c(F)cc2c(=O)c(C(=O)NCc3ccc(Cl)cc3Cl)cn(C3CC3)c12 [Example 92]
CC50 at 6 days [1]: 5.3 µM | EC50 [2, 3]: 0.031 µM | SI HCMV (selectivity index) [2]: 171
